# Legend:
# [1] = biological target: T1, COX-2 (Mus musculus, UniProt Q05769); assay: Evaluation of COX-2 activity: PGE2 formation in aspirin-treated, LPS-stimulated mouse peritoneal macrophages; assay type: cell-based; settings: for IC50: read-out: IC50, μg/ml COX-2 (converted)
# T1 sequence (Q05769 18-604): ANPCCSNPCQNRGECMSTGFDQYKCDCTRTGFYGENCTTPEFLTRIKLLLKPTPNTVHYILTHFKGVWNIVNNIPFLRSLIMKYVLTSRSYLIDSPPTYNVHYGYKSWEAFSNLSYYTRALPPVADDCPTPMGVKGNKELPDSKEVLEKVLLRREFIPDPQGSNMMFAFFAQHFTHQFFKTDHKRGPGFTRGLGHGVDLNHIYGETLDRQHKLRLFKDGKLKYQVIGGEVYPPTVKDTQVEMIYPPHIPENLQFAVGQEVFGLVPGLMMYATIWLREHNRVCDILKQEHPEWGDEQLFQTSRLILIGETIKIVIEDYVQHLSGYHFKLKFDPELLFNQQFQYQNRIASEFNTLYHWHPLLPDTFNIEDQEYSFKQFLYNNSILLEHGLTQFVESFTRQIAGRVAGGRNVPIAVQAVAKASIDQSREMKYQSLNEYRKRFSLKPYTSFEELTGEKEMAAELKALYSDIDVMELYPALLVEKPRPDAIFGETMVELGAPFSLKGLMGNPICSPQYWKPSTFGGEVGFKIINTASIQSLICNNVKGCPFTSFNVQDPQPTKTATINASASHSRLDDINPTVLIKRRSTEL
# Protocol: (§1) Evaluation of in vitro COX-2 and COX-1 Activity [J. Pharmacol. Exp. Ther. 166, 96 (1969)]
# (§2) The abdominal skin of a C57BL/6 mouse was sanitized with 70% aqueous ethanol, and was removed without damaging the peritoneum. 5 ml of cold phosphate buffer solution (PBS) was then injected into the abdominal cavity. After a minute, the peritoneal fluid containing the macrophages was collected using a syringe and a needle. The collected fluid was centrifuged for 5 min at 1500 rpm to afford pellets of cells. The pellets were then dispersed in the RPMI-1640 culture medium containing 100 units/ml penicillin and 100 μg/ml streptomycin.
# The pellets dispersed as above were treated with 500 μM aspirin in order to knock out the activity of the COX-1 enzymes in the cells. The suspension was then diluted with the RPMI-1640 medium to contain 1×10^6 cells/ml. 100 μl of the suspension was added to each well of a 96-well ELISA plate. Then the plate was incubated for 2 hrs at 37° C. under 5% CO2 in order to fix the macrophages onto the plate. The cells, which were not fixed onto the plate were removed by washing with PBS two times. […] The RPMI-1640 medium containing 3% fetal bovine serum albumin was added to each well of the plate, which was followed by stimulation with 10 μg/ml lipopolysaccharide (LPS). […] The LPS-treated suspensions were incubated for 16 hours at 37° C. under 5% CO2 to induce COX-2. Then the culture medium was removed and the macrophages were washed two times with PBS. Then 130 μl RPMI-1640 culture medium was added to each well and the macrophage solutions were incubated at 37° C. for 10 minutes, which was followed by the treatment with 10 μM arachidonic acid and an appropriate amount of compounds of this invention. The plate was incubated for another 10 minutes. The upper solution was collected using a micropipette and was subjected to determination of PGE2 amount in the solution. The amount of PGE2 present in the collected solution was determined either by a known radio-immuno assay or by a known enzyme-immunoassay [Methods in Enzymol. 86, 258 (1982); Methods in Enzymol. 187, 24 (1990)]. The extent of COX-2 inhibition by a compound of the present invention was calculated by assuming, that the amount of PGE2 formed with the treatment of 10 μg/ml arachidonic acid was used is the maximum possible amount of PGE2, and that the amount of PGE2 formed without the treatment of arachidonic acid is the minimum possible amount of PGE2.
# (§3) In order to determine IC50 for a compound of this invention, enzymatic activities were measured at multiple concentrations of compounds of this invention around IC50 of the compound. Usually enzymatic activities at 4˜5 concentrations were measured to calculate out IC50 for a compound of this invention.
# [2] = biological target: T2, COX-1 (Mus musculus, UniProt P22437); assay: Evaluation of COX-1 activity: PGE2 formation in mouse peritoneal macrophages without aspirin and LPS treatment; assay type: cell-based; settings: for IC50: read-out: IC50, μg/ml COX-1 (converted)
# T2 sequence (P22437 27-602): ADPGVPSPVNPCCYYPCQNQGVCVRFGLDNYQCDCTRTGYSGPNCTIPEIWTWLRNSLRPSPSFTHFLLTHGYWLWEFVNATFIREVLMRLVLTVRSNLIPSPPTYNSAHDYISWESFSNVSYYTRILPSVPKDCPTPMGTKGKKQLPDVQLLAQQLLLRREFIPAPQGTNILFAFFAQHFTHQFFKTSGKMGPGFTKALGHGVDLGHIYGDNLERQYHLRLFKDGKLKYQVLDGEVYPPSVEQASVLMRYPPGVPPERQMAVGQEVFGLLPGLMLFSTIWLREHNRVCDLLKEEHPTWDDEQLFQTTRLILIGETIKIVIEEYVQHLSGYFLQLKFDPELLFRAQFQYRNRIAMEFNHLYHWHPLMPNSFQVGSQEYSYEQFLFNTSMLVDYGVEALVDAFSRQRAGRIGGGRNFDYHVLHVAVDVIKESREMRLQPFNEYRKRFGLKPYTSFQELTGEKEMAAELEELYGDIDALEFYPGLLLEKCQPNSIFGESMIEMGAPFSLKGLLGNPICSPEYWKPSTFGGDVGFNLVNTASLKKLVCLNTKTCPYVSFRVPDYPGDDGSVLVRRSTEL
# Protocol: as §1, §2
# The pellets dispersed as above were treated with 500 μM aspirin in order to knock out the activity of the COX-1 enzymes in the cells. The suspension was then diluted with the RPMI-1640 medium to contain 1×10^6 cells/ml. 100 μl of the suspension was added to each well of a 96-well ELISA plate. Then the plate was incubated for 2 hrs at 37° C. under 5% CO2 in order to fix the macrophages onto the plate. The cells, which were not fixed onto the plate were removed by washing with PBS two times. The purity of macrophages obtained thereby was confirmed by differential counting. The RPMI-1640 medium containing 3% fetal bovine serum albumin was added to each well of the plate, which was followed by stimulation with 10 μg/ml lipopolysaccharide (LPS). Usually 5×10^5 cells/ml were present by this preparation. The LPS-treated suspensions were incubated for 16 hours at 37° C. under 5% CO2 to induce COX-2. Then the culture medium was removed and the macrophages were washed two times with PBS. Then 130 μl RPMI-1640 culture medium was added to each well and the macrophage solutions were incubated at 37° C. for 10 minutes, which was followed by the treatment with 10 μM arachidonic acid and an appropriate amount of compounds of this invention. The plate was incubated for another 10 minutes. The upper solution was collected using a micropipette and was subjected to determination of PGE2 amount in the solution. The amount of PGE2 present in the collected solution was determined either by a known radio-immuno assay or by a known enzyme-immunoassay [Methods in Enzymol. 86, 258 (1982); Methods in Enzymol. 187, 24 (1990)]. The extent of COX-2 inhibition by a compound of the present invention was calculated by assuming, that the amount of PGE2 formed with the treatment of 10 μg/ml arachidonic acid was used is the maximum possible amount of PGE2, and that the amount of PGE2 formed without the treatment of arachidonic acid is the minimum possible amount of PGE2.
# In the evaluation of COX-1 inhibitory activity by a compound of the present invention, the same procedures employed for evaluation of COX-2 activity were employed, except omitting the following two steps: 1) the treatment with aspirin for knockout of COX-1 activity and 2) treatment with LPS for induction of COX-2.
# as §3
Compound,"IC50, μg/ml COX-2 [1]",melting point,"IC50, μg/ml COX-1 [2]",IC50 [1],IC50 [2]
Cc1ccc(F)cc1C1=C(c2ccc(S(C)(=O)=O)cc2)OC(C)(C)C1=O [Example 94],0.05 µg/mL,159 to 160 °C,5 µg/mL,,
"CCC1(C)OC(c2ccc(S(N)(=O)=O)cc2)=C(c2ccc(C(C)=O)cc2)C1=O (stereo not drawn) [Example 45, 4-(4-Acetylphenyl)-5-{4-(aminosulfonyl)phenyl}-2-ethyl-2-methyl-3(2H)-furanone]",0.01 µg/mL,154 to 155 °C,1.07 µg/mL,,
CCC1(C)OC(c2ccc(S(C)(=O)=O)cc2)=C(c2ccc(Cl)c(C(F)(F)F)c2)C1=O (stereo not drawn) [Example 198],,168 to 170 °C,,0.0654 µM,6.54 µM
CCC1(C)OC(c2ccc(S(C)(=O)=O)cc2)=C(c2cccc(C)c2)C1=O (stereo not drawn) [Example 193],,48 to 49 °C,,0.081 µM,8.1 µM
CCC1(C)OC(c2ccc(S(C)(=O)=O)cc2)=C(c2cccc(C(F)(F)F)c2)C1=O (stereo not drawn) [Example 194],,45 to 46 °C,,0.118 µM,47.1 µM
"CCC1(C)OC(c2ccc(S(N)(=O)=O)cc2)=C(c2ccsc2)C1=O (stereo not drawn) [Example 44, 5-{4-(Aminosulfonyl)phenyl}-2-ethyl-2-methyl-4-(3-thienyl)-3(2H)-furanone]",0.101 µg/mL,120 to 121 °C,>10 µg/mL,,
"CSc1ccc(C2=C(c3cccc(Cl)c3)C(=O)C(C)(C)O2)cc1 [Example 168, 4-(3-chlorophenyl)-2,2-dimethyl-5-{4-(methylthio)phenyl}-3(2H)-furanone]",0.5 µg/mL,,3 µg/mL,,
"CS(=O)(=O)c1ccc(C2=C(c3ccccc3)C(=O)C3(CCCC3)O2)cc1 [Example 53, 2-{(4-Methylsulfonyl)phenyl}-3phenyl-1-oxa-spiro[4,4]non-2-en-4-one]",0.03 µg/mL,,5 µg/mL,,
"CCC1(C)OC(c2ccc(S(C)(=O)=O)cc2)=C(c2cccnc2)C1=O (stereo not drawn) [Example 36, 2-Ethyl-2-methyl-5-{4-(methylsulfonyl)phenyl}-4-(3-pyridyl)-3(2H)-furanone]",0.2 µg/mL,,50 µg/mL,,

# More lines, now with the values ahead:
"IC50, μg/ml COX-2 [1]",melting point,"IC50, μg/ml COX-1 [2]",IC50 [1],IC50 [2],Compound
0.1 µg/mL,109 to 111 °C,50 µg/mL,,,COc1ccccc1C1=C(c2ccc(S(C)(=O)=O)cc2)OC(C)(C)C1=O [Example 64]
0.03 µg/mL,138 to 139 °C,3 µg/mL,,,"Cc1cc(C2=C(c3cccc(F)c3)C(=O)C(C)(C)O2)ccc1S(C)(=O)=O [Example 378, 2,2-Dimethyl-4-(3-fluorophenyl)-5-{3-methyl-4-(methylsulfonyl)phenyl}-3(2H)-furanone]"
0.003 µg/mL,150 to 153 °C,5 µg/mL,,,CC1(C)OC(c2ccc(S(C)(=O)=O)cc2)=C(c2ccc(-c3ccccc3)cc2)C1=O [Example 77]
0.03 µg/mL,105 to 106 °C,0.05 µg/mL,,,"CC1(C)OC(c2ccc(S(C)(=O)=O)c(F)c2)=C(c2cccc(Cl)c2)C1=S [Example 385, 4-(3-Chlorophenyl)-2,2-dimethyl-5-{3-fluoro-4-(methylsulfonyl)phenyl}-(2H)-furan-3-thione]"
3 µg/mL,109 to 110 °C,50 µg/mL,,,CSc1ccc(C2=C(c3ccccc3)C(=O)C(C)(C)O2)cc1 [Example 167]
0.001 µg/mL,208 to 209 °C,0.12 µg/mL,,,CC1(C)OC(c2ccc(S(N)(=O)=O)cc2)=C(c2ccc(Cl)c(Cl)c2)C1=O [Example 127]
0.03 µg/mL,190 to 191 °C,20 µg/mL,,,CC1(C)OC(c2ccc(S(C)(=O)=O)c(F)c2)=C(c2ccccc2)C1=O [Example 273]
0.03 µg/mL,182 to 183 °C,200 µg/mL,,,CC1(C)OC(c2ccc(S(C)(=O)=O)c(F)c2)=C(c2cccc(F)c2)C1=O [Example 275]
0.05 µg/mL,,30 µg/mL,,,"CC1(C)OC(c2ccc(S(C)(=O)=O)c(Cl)c2)=C(c2ccccc2)C1=O [Example 357, 5-{3-Chloro-4(methylsulfonyl)phenyl}-2,2-dimethyl-4-phenyl-3(2H)-furanone]"
0.03 µg/mL,,20 µg/mL,,,"CC1(C)OC(c2ccc(S(N)(=O)=O)c(F)c2)=C(c2ccccc2)C1=O [Example 300, 5-{4(Aminosulfonyl)-3-fluorophenyl}-2,2-dimethyl-4-phenyl-3(2H)-furanone]"
0.08 µg/mL,,200 µg/mL,,,"Cc1cc(C2=C(c3cc(F)cc(F)c3)C(=O)C(C)(C)O2)ccc1S(C)(=O)=O [Example 382, 4-(3,5-Difluorophenyl)-2,2-dimethyl-5-{3-methyl-4-(methylsulfonyl)phenyl}-3(2H)-furanone]"
